Some test systems named below: SW-620 colon; OVCAR-8 ovarian; MALME-3M melanoma; SN12C renal; T-47D breast; HOP-92 NSCLC; A498 renal; U251 CNS; TK-10 renal; SF-268 CNS; HL-60(TB) leukemia; CCRF-CEM leukemia; OVCAR-3 ovarian; A549 NSCLC; NCI-H23 lung; MDA-MB-231 breast; NCI/ADR-RES ovarian; SF-539 CNS; UACC-62 melanoma.
Assay in all cases: growth of human tumour cells (NCI), 48 h

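The compound was tested at five concentrations on cells cultured in 96-well plates, with a 48-hour exposure period. Definition used: TGI = concentration required for complete inhibition of growth.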 Some results are limits rather than exact numbers.

In the case of `Cc1ccc2nc(NS(=O)(=O)c3cc(C)c(Cl)cc3S)[nH]c2c1`, the TGI in the assay on SW-620 colon, in the assay on OVCAR-8 ovarian, with MALME-3M melanoma, with SN12C renal, in the assay with T-47D breast and in the assay with HOP-92 NSCLC was more than 100 µM throughout. Also, the TGI is more than 100 µM in the assay on A498 renal; more than 100 µM in the assay with U251 CNS; more than 100 µM in the assay on TK-10 renal; more than 100 µM in the assay with SF-268 CNS; 72.7 µM with HL-60(TB) leukemia; 69.8 µM in the assay with CCRF-CEM leukemia. For the same compound, the TGI with OVCAR-3 ovarian, with A549 NSCLC, in the assay with NCI-H23 lung, in the assay with MDA-MB-231 breast, in the assay with NCI/ADR-RES ovarian and with SF-539 CNS was more than 100 µM in each case. In the assay on UACC-62 melanoma, this compound yielded a TGI of more than 100 µM.
In the case of `CC(C)[Si]1(C(C)C)OCC2OC(n3ccc(=O)[nH]c3=O)C([Se]c3ccccc3)C2O[Si](C(C)C)(C(C)C)O1` (stereo not drawn), the TGI was determined as 6.62 µM in the assay with SW-620 colon; 10.7 µM with OVCAR-8 ovarian; 8.93 µM in the assay with MALME-3M melanoma; 5.57 µM in the assay with SN12C renal; 19.9 µM in the assay on T-47D breast; 13 µM with HOP-92 NSCLC. The TGI in the assay with A498 renal was 18.9 µM; with U251 CNS, 4.87 µM; with TK-10 renal, 19.9 µM; in the assay on SF-268 CNS it was 10.3 µM; with HL-60(TB) leukemia, more than 25.4 µM; in the assay with CCRF-CEM leukemia, more than 24.4 µM. The TGI turned out to be 9.73 µM with OVCAR-3 ovarian; 22.1 µM in the assay on A549 NSCLC; 13 µM in the assay on NCI-H23 lung; 7.79 µM with MDA-MB-231 breast; 26.7 µM with NCI/ADR-RES ovarian; 20.7 µM in the assay with SF-539 CNS. The compound also had a TGI with UACC-62 melanoma of 14.8 µM.

The record behind these values is PubChem BioAssay (NCI).
